The target in one assay is T1, human PAH with the R408W mutation (Homo sapiens, UniProt P00439, R408W).
T1 construct: expressed in transfected cells
T1 sequence (P00439 1-452 R408W): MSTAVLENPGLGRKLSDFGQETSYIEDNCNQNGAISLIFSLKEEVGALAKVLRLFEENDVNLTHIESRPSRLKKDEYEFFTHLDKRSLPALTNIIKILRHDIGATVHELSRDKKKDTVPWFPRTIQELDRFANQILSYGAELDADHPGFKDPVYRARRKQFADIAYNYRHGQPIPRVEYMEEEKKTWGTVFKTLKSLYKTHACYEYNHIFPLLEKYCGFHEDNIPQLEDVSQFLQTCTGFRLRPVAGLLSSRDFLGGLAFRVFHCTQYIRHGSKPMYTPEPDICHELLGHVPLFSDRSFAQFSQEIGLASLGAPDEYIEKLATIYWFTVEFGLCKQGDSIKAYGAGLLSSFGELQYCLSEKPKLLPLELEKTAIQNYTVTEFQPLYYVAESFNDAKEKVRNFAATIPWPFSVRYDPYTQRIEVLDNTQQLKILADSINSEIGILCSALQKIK
Kind of assay: Cell Based Phenylalanine Flux Assay.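 Note: after compound treatment, cells received sepiapterin plus isotope-labelled Phenylalanine for 4 hours, then labelled Tyrosine in the medium was quantified, 10-point 2-fold dilution series run in duplicate.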 The note with it: A375 cells expressing R408W PAH; 24 hrs with compound, then 20 µM sepiapterin and 800 µM 13C9,15N-Phenylalanine for 4 hours; 13C-Tyrosine by LC-MS; average where tested multiple times; read-out: AC50.
Regarding `FC(F)c1cccc2cc(C3c4nc[nH]c4CCN3c3nnc(C4CCC4)o3)nn12` (stereo not drawn), the concentration at half-maximal activity (AC50) lay within 1 to 5 µM.
On the same count and under the same terms, the result for `Cc1ccn2nc(C3c4nc[nH]c4CCN3C(=O)c3nnc(-c4ccn(C)n4)o3)cc2c1` (stereo not drawn) reads above 5 µM.
The same measure, in the same setting: in the case of `CN(C)Cc1ccc2c(C(=O)N3CCc4[nH]cnc4C3c3cc4c(F)cccn4n3)cnn2c1` (stereo not drawn) it was 1 to 5 µM.
Still for that read-out and setting: the result for `Cc1cccn2nc(C3c4nc[nH]c4CCN3C(=O)c3cnc(C(C)(C)O)o3)cc12` (stereo not drawn) reads 1 to 5 µM.
Consider `O=C(c1ccn(-c2ccccn2)n1)N1CCc2[nH]cnc2C1c1cc2c(F)cccn2n1` (stereo not drawn), for which the AC50 was 1 to 5 µM.
Regarding `Nc1cnc(N2CCc3[nH]cnc3[C@H]2c2cc3cccc(C(F)F)n3n2)nc1` (single isomer, unassigned), the AC50 was above 5 µM.
Consider `Cc1nc(C(C)O)oc1C(=O)N1CCc2[nH]cnc2C1c1cc2cccc(C(F)(F)F)n2n1` (stereo not drawn), for which the AC50 lay within 1 to 5 µM.
On the same count and under the same terms, in the case of `O=C(c1cnc(-c2ncccn2)o1)N1CCc2[nH]cnc2C1c1cc2c(F)cccn2n1` (stereo not drawn) it was above 5 µM.
Still for that read-out and setting: in the case of `FC(F)(F)c1cccn2nc([C@@H]3c4nc[nH]c4CCN3c3nnc(-c4ncccn4)o3)cc12` (single isomer, unassigned) it was 1 to 5 µM; in that of `CC(C)(O)c1nnc(C(=O)N2CCc3[nH]cnc3C2c2cc3ccccn3n2)o1` (stereo not drawn), 1 to 5 µM; in that of `COCc1ncc(C(=O)N2CCc3[nH]cnc3C2c2cc3ccccn3n2)s1` (stereo not drawn), 1 to 5 µM.
For the compound `COC(=O)N1CC(C(=O)N2CCc3[nH]cnc3[C@H]2c2cc3ccccn3n2)C1` (single isomer, unassigned), the AC50 was above 5 µM.

Staying with this assay, now noted: A375 cells expressing human PAH R408W; 24 hrs compound incubation; 13C-Tyrosine by LC-MS; average where tested multiple times; read-out: AC50.
With `Cc1cccn2nc([C@@H]3c4nc[nH]c4CCN3C(=O)c3cnc(-c4ccn(C)n4)o3)cc12` [Example 2499, (S)-(2-(1-methyl-1H-pyrazol-3-yl)oxazol-5-yl)(4-(4-methylpyrazolo[1,5-a]pyridin-2-yl)-1,4,6,7-tetrahydro-5H-imidazo[4,5-c]pyridin-5-yl)methanone], the AC50 lay in the range of 1 to 5 µM.
On to `COc1cccn2nc([C@@H]3c4nc[nH]c4CCN3c3ncccn3)cc12` [Example 2299, (S)-4-(4-methoxypyrazolo[1,5-a]pyridin-2-yl)-5-(pyrimidin-2-yl)-4,5,6,7-tetrahydro-1H-imidazo[4,5-c]pyridine], for which the AC50 is below 0.5 µM.
Same read-out and setting: the result for `CC(F)(F)c1nnc(N2CCc3[nH]cnc3[C@H]2c2cc3c(C4CC4)cccn3n2)o1` [Example 2205, (S)-2-(4-(4-cyclopropylpyrazolo[1,5-a]pyridin-2-yl)-1,4,6,7-tetrahydro-5H-imidazo[4,5-c]pyridin-5-yl)-5-(1,1-difluoroethyl)-1,3,4-oxadiazole] reads below 0.5 µM; that for `O=C(c1ncco1)N1CCc2[nH]cnc2[C@H]1c1cc2c(C(F)(F)F)cccn2n1` [Example 2078, (S)-oxazol-2-yl(4-(4-(trifluoromethyl)pyrazolo[1,5-a]pyridin-2-yl)-1,4,6,7-tetrahydro-5H-imidazo[4,5-c]pyridin-5-yl)methanone], 0.5 to 1 µM.
The same measure, in the same setting: the result for `O=C(c1nc2ccccc2o1)N1CCc2[nH]cnc2[C@H]1c1cc2c(C(F)(F)F)cccn2n1` [Example 2054, (S)-benzo[d]oxazol-2-yl(4-(4-(trifluoromethyl)pyrazolo[1,5-a]pyridin-2-yl)-1,4,6,7-tetrahydro-5H-imidazo[4,5-c]pyridin-5-yl)methanone] reads 0.5 to 1 µM.
Same read-out and setting: in the case of `Fc1cccc(F)c1-c1nnc(N2CCc3[nH]cnc3[C@H]2c2cc3c(C(F)(F)F)cccn3n2)o1` [Example 1847, (S)-2-(2,6-difluorophenyl)-5-(4-(4-(trifluoromethyl)pyrazolo[1,5-a]pyridin-2-yl)-6,7-dihydro-1H-imidazo[4,5-c]pyridin-5(4H)-yl)-1,3,4-oxadiazole] it was below 0.5 µM; in that of `FC(F)(F)Oc1cccn2nc([C@@H]3c4nc[nH]c4CCN3c3ccc(C(F)(F)F)cn3)cc12` [Example 2348, (S)-4-(4-(trifluoromethoxy)pyrazolo[1,5-a]pyridin-2-yl)-5-(5-(trifluoromethyl)pyridin-2-yl)-4,5,6,7-tetrahydro-1H-imidazo[4,5-c]pyridine], 0.5 to 1 µM.
`Cc1c(-c2ncc(C(=O)N3CCc4[nH]cnc4[C@H]3c3cc4c(C(F)(F)F)cccn4n3)o2)cnn1C` [Example 2110, (S)-(2-(1,5-dimethyl-1H-pyrazol-4-yl)oxazol-5-yl)(4-(4-(trifluoromethyl)pyrazolo[1,5-a]pyridin-2-yl)-1,4,6,7-tetrahydro-5H-imidazo[4,5-c]pyridin-5-yl)methanone]: the AC50 was below 0.5 µM.

The same assay, now with this note: A375 cells expressing human R408W PAH; 24 hrs compound incubation; 13C-Tyrosine by LC-MS; average where tested multiple times; read-out: AC50.
With `O=C(c1nnc(C2CCC2)o1)N1CCc2[nH]cnc2[C@@H]1c1cc2cccc(C(F)F)n2n1` [Example 1572, (R)-(5-cyclobutyl-1,3,4-oxadiazol-2-yl)(4-(7-(difluoromethyl)pyrazolo[1,5-a]pyridin-2-yl)-6,7-dihydro-1H-imidazo[4,5-c]pyridin-5(4H)-yl)methanone], the AC50 lay in the range of 1 to 5 µM.
The same measure, in the same setting: in the case of `Cn1cncc1-c1nc(C(F)F)c(C(=O)N2CCc3[nH]cnc3[C@H]2c2cc3c(F)cccn3n2)o1` [Example 889, (S)-(4-(difluoromethyl)-2-(1-methyl-1H-imidazol-5-yl)oxazol-5-yl)(4-(4-fluoropyrazolo[1,5-a]pyridin-2-yl)-6,7-dihydro-1H-imidazo[4,5-c]pyridin-5(4H)-yl)methanone] it was 0.5 to 1 µM; in that of `Cc1ccc2cc([C@H]3c4nc[nH]c4CCN3C(=O)c3nnc(-c4ccccn4)o3)nn2c1` [Example 813, (R)-(4-(6-methylpyrazolo[1,5-a]pyridin-2-yl)-6,7-dihydro-1H-imidazo[4,5-c]pyridin-5(4H)-yl)(5-(pyridin-2-yl)-1,3,4-oxadiazol-2-yl)methanone], above 5 µM.
On the same count and under the same terms, in the case of `O=C(c1nnc(C2CC2)o1)N1CCc2[nH]cnc2[C@@H]1c1cc2ccccn2n1` [Example 621, (R)-(5-cyclopropyl-1,3,4-oxadiazol-2-yl)(4-(pyrazolo[1,5-a]pyridin-2-yl)-6,7-dihydro-1H-imidazo[4,5-c]pyridin-5(4H)-yl)methanone] it was above 5 µM; in that of `Cc1ncccc1-c1nnc(C(=O)N2CCc3[nH]cnc3[C@H]2c2cc3c(C(F)(F)F)cccn3n2)o1` [Example 1304, (S)-(5-(2-methylpyridin-3-yl)-1,3,4-oxadiazol-2-yl)(4-(4-(trifluoromethyl)pyrazolo[1,5-a]pyridin-2-yl)-6,7-dihydro-1H-imidazo[4,5-c]pyridin-5(4H)-yl)methanone], below 0.5 µM.
Still for that read-out and setting: in the case of `Cc1ccc(-c2nnc(C(=O)N3CCc4[nH]cnc4[C@@H]3c3cc4c(F)cccn4n3)o2)nc1` [Example 876, (R)-(4-(4-fluoropyrazolo[1,5-a]pyridin-2-yl)-6,7-dihydro-1H-imidazo[4,5-c]pyridin-5(4H)-yl)(5-(5-methylpyridin-2-yl)-1,3,4-oxadiazol-2-yl)methanone] it was above 5 µM; in that of `COc1ccc(-c2nnc(C(=O)N3CCc4[nH]cnc4[C@@H]3c3cc4c(C)cccn4n3)o2)nc1` [Example 816, (R)-(5-(5-methoxypyridin-2-yl)-1,3,4-oxadiazol-2-yl)(4-(4-methylpyrazolo[1,5-a]pyridin-2-yl)-6,7-dihydro-1H-imidazo[4,5-c]pyridin-5(4H)-yl)methanone], above 5 µM; in that of `O=C(c1nnc(-c2ccccn2)o1)N1CCc2[nH]cnc2[C@@H]1c1cc2ccc(F)cn2n1` [Example 1091, (R)-(4-(6-fluoropyrazolo[1,5-a]pyridin-2-yl)-6,7-dihydro-1H-imidazo[4,5-c]pyridin-5(4H)-yl)(5-(pyridin-2-yl)-1,3,4-oxadiazol-2-yl)methanone], above 5 µM.
Take `CC(C)(F)c1nnc(C(=O)N2CCc3[nH]cnc3[C@@H]2c2cc3cccc(F)n3n2)o1` [Example 986, (R)-(5-(2-fluoropropan-2-yl)-1,3,4-oxadiazol-2-yl)(4-(7-fluoropyrazolo[1,5-a]pyridin-2-yl)-6,7-dihydro-1H-imidazo[4,5-c]pyridin-5(4H)-yl)methanone]: the AC50 lay in the range of 1 to 5 µM.
`Cn1cnc(-c2nnc(C(=O)N3CCc4[nH]cnc4[C@@H]3c3cc4c(F)cccn4n3)o2)c1` [Example 808, (R)-(4-(4-fluoropyrazolo[1,5-a]pyridin-2-yl)-6,7-dihydro-1H-imidazo[4,5-c]pyridin-5(4H)-yl)(5-(1-methyl-1H-imidazol-4-yl)-1,3,4-oxadiazol-2-yl)methanone]: the AC50 is above 5 µM.
The same measure, in the same setting: the result for `Cc1nc([C@@H](C)O)oc1C(=O)N1CCc2[nH]cnc2[C@H]1c1cc2c(C)cccn2n1` [Example 752, (2-((R)-1-hydroxyethyl)-4-methyloxazol-5-yl)((S)-4-(4-methylpyrazolo[1,5-a]pyridin-2-yl)-6,7-dihydro-1H-imidazo[4,5-c]pyridin-5(4H)-yl)methanone] reads below 0.5 µM.
Still for that read-out and setting: the result for `Cc1cccn2nc([C@H]3c4nc[nH]c4CCN3c3nnc(C4CC4)o3)cc12` [Example 1588, (R)-2-cyclopropyl-5-(4-(4-methylpyrazolo[1,5-a]pyridin-2-yl)-6,7-dihydro-1H-imidazo[4,5-c]pyridin-5(4H)-yl)-1,3,4-oxadiazole] reads above 5 µM.
Still for that read-out and setting: the result for `Cc1ncoc1C(=O)N1CCc2[nH]cnc2[C@@H]1c1cc2ccccn2n1` [Example 607, (R)-(4-methyloxazol-5-yl)(4-(pyrazolo[1,5-a]pyridin-2-yl)-6,7-dihydro-1H-imidazo[4,5-c]pyridin-5(4H)-yl)methanone] reads above 5 µM.

As a reminder, the AC50 is the concentration giving half of the maximal activity seen.

These data come from patent publication US20230365592A1 (Agios Pharmaceuticals, Inc., priority 2022, published 2023).
